Data on one molecule can be found in publication PMC5931576, “Allosteric modulation of the farnesoid X receptor by a small molecule” (Scientific Reports, 2018).

The subject of assay [1] is PPARα/γ/δ, LXRα/β, RXRα/β/γ, RARα/β/γ, VDR and CAR. Briefly: Hybrid reporter gene assays for nuclear receptors related to FXR. The format is cell-based, human. The source says:
The Gal4-fusion receptor plasmids pFA-CMV-hPPARα-LBD[34], pFA-CMV-hPPARγ-LBD[34], pFA-CMV-hPPARδ-LBD[34], pFA-CMV-hLXRα-LBD[35], pFA-CMV-hLXRβ-LBD[35], pFA-CMV-hRXRα-LBD[36], pFA-CMV-hRXRβ-LBD[36], pFA-CMV-hRXRγ-LBD[36], pFA-CMV-hRARα-LBD[36], pFA-CMV-hRARβ-LBD[36], pFA-CMV-hRARγ-LBD[36], pFA-CMV-hVDR-LBD[36] and pFA-CMV-hCAR-LBD[36] coding for the hinge region and ligand binding domain (LBD) of the canonical isoform of the respective nuclear receptor have been reported previously. pFR-Luc (Stratagene) was used as reporter plasmid and pRL-SV40 (Promega) for normalization of transfection efficiency and cell growth.
HEK293T cells were grown in DMEM high glucose, supplemented with 10% FCS, sodium pyruvate (1 mM), penicillin (100 U/mL) and streptomycin (100 μg/mL) at 37 °C and 5% CO2. The day before transfection, HEK293T cells were seeded in 96-well plates (2.5·10^4 cells/well). Before transfection, medium was changed to Opti-MEM without supplements. Transient transfection was carried out using Lipofectamine LTX reagent (Invitrogen) according to the manufacturer’s protocol with pFR-Luc (Stratagene), pRL-SV40 (Promega) and pFA-CMV-hNR-LBD. […] Luminescence was measured with an Infinite M200 luminometer (Tecan Deutschland GmbH) or a Tecan Spark 10 M luminometer (Tecan). […]
In general terms: Reporter assays use an easily measured gene product as a stand-in for the process of interest.

Another assay has as its system BSEP mRNA. Briefly: FXR target gene quantification (qRT-PCR) in HepG2 cells: BSEP. The assay is classed as cell-based. Conditions: for BSEP mRNA, mean fold activation compared to DMSO (0.1%): HepG2, 24 h. (In general: In qPCR the cycle at which signal appears reflects the starting amount.)
In a further assay the test system is FXR-LBD. Description: Thermal shift assay (SYPRO Orange). The format is binding. Conditions: compound 100 µM alone, 5 µM FXR-LBD; mean ± SEM, n ≥ 4.
Assay [2] has as its system kinases that interact with FXR. Briefly: Kinase inhibition profile, kinases that interact with FXR. The format is biochemical.
A further assay has as its system Abl. Briefly: Kinase inhibition assay (radiometric or HTRF). The format is biochemical. In general terms: In TR-FRET formats the signal depends on donor and acceptor labels being close together.
The next assay concerns PDGF-Rα. Description: Kinase inhibition assay (radiometric or HTRF). The format is biochemical.
In a further assay the target is T1, human FXR (Homo sapiens, UniProt Q96RI1).
T1 construct: expressed in transfected cells; host or cells: HeLa
T1 sequence (Q96RI1 1-486): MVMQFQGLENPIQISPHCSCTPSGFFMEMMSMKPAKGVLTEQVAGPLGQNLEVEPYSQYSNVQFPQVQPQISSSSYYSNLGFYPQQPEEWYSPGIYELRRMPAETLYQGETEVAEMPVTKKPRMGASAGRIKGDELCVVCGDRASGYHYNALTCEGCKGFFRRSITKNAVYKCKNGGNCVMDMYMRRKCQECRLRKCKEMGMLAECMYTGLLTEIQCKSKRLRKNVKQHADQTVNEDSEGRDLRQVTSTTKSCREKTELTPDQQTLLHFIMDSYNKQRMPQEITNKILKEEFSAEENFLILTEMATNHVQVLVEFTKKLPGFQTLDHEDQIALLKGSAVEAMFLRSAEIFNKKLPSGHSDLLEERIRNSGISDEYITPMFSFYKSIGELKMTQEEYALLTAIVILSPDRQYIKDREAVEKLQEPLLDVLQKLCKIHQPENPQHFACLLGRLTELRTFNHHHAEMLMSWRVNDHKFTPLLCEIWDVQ
T1 sequence (P19793 1-462 partner): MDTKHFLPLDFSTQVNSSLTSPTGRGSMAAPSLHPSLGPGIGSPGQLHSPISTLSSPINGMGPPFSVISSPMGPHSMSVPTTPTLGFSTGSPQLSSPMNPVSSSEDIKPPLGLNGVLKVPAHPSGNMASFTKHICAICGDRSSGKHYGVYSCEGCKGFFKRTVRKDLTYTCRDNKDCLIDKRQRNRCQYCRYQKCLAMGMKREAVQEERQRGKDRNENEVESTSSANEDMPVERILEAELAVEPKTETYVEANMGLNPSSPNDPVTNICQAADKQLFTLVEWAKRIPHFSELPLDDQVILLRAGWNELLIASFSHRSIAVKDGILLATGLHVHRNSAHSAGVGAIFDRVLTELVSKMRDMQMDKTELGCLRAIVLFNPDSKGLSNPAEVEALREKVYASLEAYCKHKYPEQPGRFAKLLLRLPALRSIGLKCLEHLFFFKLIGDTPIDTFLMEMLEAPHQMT
Description: Full-length FXR transactivation (reporter gene) assay in HeLa cells. The format is cell-based.

A further assay relates to c-Kit. Briefly: Kinase inhibition assay (radiometric or HTRF). The format is biochemical.

Description for FXR-LBD: Thermal shift experiments were performed in clear 96-well plates (Invitrogen) using SYPRO Orange (Invitrogen) as dye as described previously[38]. 10 μL of test compound (final concentrations: 3: 100 µM; 16: 100 µM) in assay buffer (10 mM TRIS (pH 8.3), 5 mM DTT, 0.5 mM EDTA, 100 mM NaCl) were mixed with 10 μL of FXR-LBD (final protein concentration 5 µM) in assay buffer and 5 µL of SYPRO Orange (5 × final concentration). Temperature-dependent fluorescence increase reporting protein denaturation was measured in duplicates in an ICycler (Bio-Rad Laboratories, Hercules, CA, USA) from 20 to 90 °C in steps of 0.5 °C per minute at 300 nm excitation and 570 nm emission wavelength. The first derivative of the melting curve was calculated using the Graph Pad Prism 5 software. All curves were determined at least four times in independent experiments.

On to `CS(=O)(=O)O.CS(=O)(=O)O.CS(=O)(=O)O.CS(=O)(=O)O.Cc1ccc(NC(=O)c2ccc(Cl)cc2)cc1Nc1nccc(-c2cccnc2)n1.Cc1ccc(NC(=O)c2ccc(Cl)cc2)cc1Nc1nccc(-c2cccnc2)n1.O.O.O` [compound 16, 4-Chloro-N-(4-methyl-3-(4-(pyridin-3-yl)pyrimidin-2-ylamino)phenyl)benzamide dimesylate-sesquihydrate], for which the “Selectivity over nuclear receptors related to FXR” value in assay [1] is recorded as “high selectivity”. Moreover, in the assay on BSEP mRNA (HepG2, 16 co-incubated with 1), the “CDCA-induced BSEP mRNA expression compared to 1 alone” value is given as “about 3 fold”. Further, the “BSEP mRNA, mean fold activation compared to DMSO (0.1%)” value with BSEP mRNA (0.3 µM alone) stood at 2.64 ± 0.07; with BSEP mRNA (16 (0.3 µM) + 1 (20 µM)), 4.56 ± 0.77; in the assay with BSEP mRNA (16 (0.3 µM) + 1 (50 µM)), 29.37 ± 3.32. Further, in the assay on FXR-LBD, the “Thermal shift of FXR-LBD melting point” value is −1.0 ± 0.0 °C. The “Inhibition of kinases that interact with FXR” value in assay [2] was “does not markedly inhibit”. Moreover, the “Inhibition of Abl” value in the assay on Abl was “potent inhibitor”. Moreover, the “Inhibition of PDGF-Rα” value in the assay on PDGF-Rα is listed as “potent inhibitor”. The “Effect on transactivation efficacy of FXR agonists 1–3” value at human FXR (16 at 10 µM) is “significantly enhances”. The Emax at human FXR (HeLa, read-out: hFXR: max. rel. act.) was 8.4%. Besides, on human FXR (full-length reporter gene assay, HeLa cells, mean ± SEM, n ≥ 3, read-out: hFXR: EC50), the EC50 (as a rule, the concentration at which the effect is half-maximal) was determined as 1.9 ± 0.6 nM. Also, the “Effect on EC50-value of 1” value at human FXR (in presence of 0.1 µM 16) was “not affected”. Besides, the “Increase of maximum relative activation of 1” value on human FXR (in presence of 0.1 µM 16) is “about 50%”. Also, the “Inhibition of c-Kit” value with c-Kit was “potent inhibitor”.
